The results in this text go back to ChEMBL document CHEMBL1146488, “Antineoplastic agents. 511. Direct phosphorylation of phenpanstatin and pancratistatin” (J Nat Prod, 2004).

In general, GI50 refers to the concentration that inhibits growth by half. Higher therefore signals less potent growth inhibition. As a reminder, the solubility is the concentration that dissolves in the medium under given conditions. Low values mean a poorly soluble substance, high ones a readily soluble substance.

One series deals with P388. The experiment in a line: Cytotoxicity against mouse P388 cells. Format: functional. The following applies: read-out: ED50 (the source's name).
The subject of the next series is BXPC-3. The series is described as follows: Cytotoxicity against human BxPC3 cells. Format: functional.
A further series concerns MCF7. The experiment in a line: Cytotoxicity against human MCF7 cells. The series is classed as functional.
The next series concerns DU-145. The experiment in a line: Cytotoxicity against human DU145 cells. Format: functional.
Another series concerns KM-20L2. The series is described as follows: Cytotoxicity against human KM20L2 cells. Format: functional.
In a further series the test system is NCI-H460. The series is described as follows: Cytotoxicity against human NCI-H460 cells. The series is classed as functional.
The next series has as its system SF-268. The experiment in a line: Cytotoxicity against human SF268 cells. Format: functional.
Series [1] can be described thus: Solubility in water. Format: physicochemical.

SMILES strings stand for the structures. In brackets after ≈: the same amount, converted by molar mass.

As to `O=C1N[C@H]2[C@H](OP(=O)([O-])[O-])[C@H](O)[C@@H](O)[C@H](O)[C@@H]2c2cc3c(c(O)c21)OCO3.[Zn+2]`, the EC50 in the series on P388 came to 0.17 µg/mL. Further, the GI50 stood at 0.27 µg/mL with BXPC-3; 0.47 µg/mL with MCF7; 0.17 µg/mL in the series on DU-145; 0.3 µg/mL in the series on KM-20L2; 0.42 µg/mL in the series on NCI-H460; 0.38 µg/mL in the series on SF-268.
For the compound `O=C1N[C@H]2[C@H](OP(=O)(O)O)[C@H](O)[C@@H](O)[C@H](O)[C@@H]2c2cc3c(c(O)c21)OCO3.c1c[nH]cn1`, the EC50 with P388 came to 0.063 µg/mL. Further, the GI50 in the series on BXPC-3 turned out to be 0.25 µg/mL; in the series with MCF7, 0.33 µg/mL; with DU-145, 0.13 µg/mL; with KM-20L2, 0.13 µg/mL; in the series on NCI-H460 it was 0.25 µg/mL; in the series with SF-268 it was 0.21 µg/mL.
Take `O=C1N[C@H]2[C@H](OP(=O)([O-])[O-])[C@H](O)[C@@H](O)[C@H](O)[C@@H]2c2cc3c(c(O)c21)OCO3.[Ca+2]`: the EC50 in the series on P388 is 0.21 µg/mL. Moreover, the GI50 in the series on BXPC-3 was determined as 0.25 µg/mL; in the series on MCF7, 0.36 µg/mL; with DU-145, 0.12 µg/mL; in the series with KM-20L2, 0.23 µg/mL; with NCI-H460, 0.27 µg/mL; in the series with SF-268, 0.26 µg/mL.
As to `O=C1N[C@H]2[C@H](O)[C@H](O)[C@@H](O)[C@H](O)[C@@H]2c2cc3c(c(O)c21)OCO3` [PANCRATISTATIN], the EC50 in the series with P388 turned out to be 0.017 µg/mL (≈ 0.0523 µM). The GI50 in the series with BXPC-3 was determined as 0.02 µg/mL (≈ 0.0615 µM); in the series on MCF7 it was 0.023 µg/mL (≈ 0.0707 µM); in the series on DU-145, 0.015 µg/mL (≈ 0.0461 µM); in the series with KM-20L2, 0.025 µg/mL (≈ 0.0769 µM); in the series on NCI-H460, 0.032 µg/mL (≈ 0.0984 µM); in the series with SF-268 it was 0.014 µg/mL (≈ 0.043 µM). In series [1], this compound gave a solubility of 53 µg/mL (≈ 163 µM).
`O=C1N[C@H]2[C@H](O)[C@H](O)[C@@H](O)[C@H](O)[C@@H]2c2cc3c(c(OP(=O)([O-])[O-])c21)OCO3.[Na+].[Na+]`: the EC50 in the series with P388 came out at 0.24 µg/mL. Also, the GI50 with BXPC-3 came to 0.2 µg/mL; in the series on MCF7, 0.2 µg/mL; in the series on DU-145, 0.026 µg/mL; with KM-20L2 it was 0.17 µg/mL; in the series on NCI-H460, 0.19 µg/mL; with SF-268 it was 0.079 µg/mL. The same compound returned a solubility in series [1] of 20 µg/mL.
Consider `O=C1N[C@H]2[C@H](OP(=O)(O)O)[C@H](O)[C@@H](O)[C@H](O)[C@@H]2c2cc3c(c(O)c21)OCO3`, for which the EC50 in the series with P388 was 0.047 µg/mL (≈ 0.116 µM). For the same compound, the 50% growth inhibitory concentration (GI50) is 0.36 µg/mL (≈ 0.888 µM) in the series on BXPC-3; 0.43 µg/mL (≈ 1.06 µM) with MCF7; 0.2 µg/mL (≈ 0.494 µM) in the series on DU-145; 0.33 µg/mL (≈ 0.814 µM) with KM-20L2; 0.42 µg/mL (≈ 1.04 µM) in the series with NCI-H460; 0.35 µg/mL (≈ 0.864 µM) in the series with SF-268.
In the case of `O=C(O[C@H]1[C@H](O)[C@H]2OP(=O)([O-])O[C@H]2[C@@H]2NC(=O)c3c(cc4c(c3O)OCO4)[C@H]21)c1ccccc1.[Na+]`, the EC50 in the series with P388 was 0.061 µg/mL. For the same compound, the GI50 was 0.25 µg/mL in the series on BXPC-3; 0.041 µg/mL in the series on MCF7; 0.13 µg/mL in the series with DU-145; 0.13 µg/mL in the series with KM-20L2; 0.029 µg/mL in the series on NCI-H460; 0.17 µg/mL in the series with SF-268.
Turning to `O=C1N[C@H]2[C@H](OP(=O)([O-])O)[C@H](O)[C@@H](O)[C@H](O)[C@@H]2c2cc3c(c(O)c21)OCO3.[Li+]`, in the series with P388, the EC50 worked out at 0.036 µg/mL. The GI50 in the series with BXPC-3 stood at 0.3 µg/mL; in the series on MCF7, 0.39 µg/mL; in the series on DU-145 it was 0.2 µg/mL; in the series with KM-20L2, 0.25 µg/mL; in the series on NCI-H460, 0.35 µg/mL; in the series on SF-268 it was 0.28 µg/mL.
`O=C1N[C@H]2[C@H](OP(=O)([O-])[O-])[C@H](O)[C@@H](O)[C@H](O)[C@@H]2c2cc3c(c(O)c21)OCO3.[Mg+2]`: the EC50 with P388 worked out at 0.02 µg/mL. For the same compound, the GI50 with BXPC-3 amounted to 0.4 µg/mL; in the series on MCF7 it was 0.44 µg/mL; in the series on DU-145 it was 0.22 µg/mL; in the series with KM-20L2, 0.36 µg/mL; in the series on NCI-H460, 0.42 µg/mL; in the series on SF-268 it was 0.36 µg/mL.
Consider `C1COCCN1.O=C1N[C@H]2[C@H](OP(=O)(O)O)[C@H](O)[C@@H](O)[C@H](O)[C@@H]2c2cc3c(c(O)c21)OCO3`, for which the EC50 in the series on P388 came out at 0.27 µg/mL. Moreover, the GI50 turned out to be 0.29 µg/mL in the series with BXPC-3; 0.4 µg/mL in the series with MCF7; 0.18 µg/mL with DU-145; 0.37 µg/mL in the series on KM-20L2; 0.46 µg/mL with NCI-H460; 0.38 µg/mL in the series on SF-268.
Consider `C=C[C@H]1CN2CC[C@H]1C[C@H]2[C@H](O)c1ccnc2ccc(OC)cc12.O=C1N[C@H]2[C@H](OP(=O)(O)O)[C@H](O)[C@@H](O)[C@H](O)[C@@H]2c2cc3c(c(O)c21)OCO3`, for which the EC50 with P388 is 0.066 µg/mL. Moreover, the GI50 with BXPC-3 is 0.23 µg/mL; in the series on MCF7 it was 0.35 µg/mL; in the series with DU-145, 0.15 µg/mL; in the series on KM-20L2, 0.22 µg/mL; in the series with NCI-H460 it was 0.31 µg/mL; with SF-268 it was 0.28 µg/mL.
Take `O=C1N[C@@H]2C(=C[C@H](O)[C@@H](O)[C@H]2O)c2cc3c(c(O)c21)OCO3` [NARCICLASINE]: the EC50 in the series on P388 came out at 0.013 µg/mL (≈ 0.0423 µM). Moreover, the GI50 in the series with BXPC-3 was found to be 0.0035 µg/mL (≈ 0.0114 µM); in the series on MCF7 it was 0.0032 µg/mL (≈ 0.0104 µM); in the series on DU-145 it was 0.0032 µg/mL (≈ 0.0104 µM); in the series on KM-20L2, 0.0032 µg/mL (≈ 0.0104 µM); in the series on NCI-H460 it was 0.0084 µg/mL (≈ 0.0273 µM); with SF-268 it was 0.0031 µg/mL (≈ 0.0101 µM).
With `O=C1N[C@H]2[C@H](OP(=O)([O-])O)[C@H](O)[C@@H](O)[C@H](O)[C@@H]2c2cc3c(c(O)c21)OCO3.[Na+]`, the EC50 in the series on P388 was 0.018 µg/mL. Also, the GI50 with BXPC-3 stood at 0.18 µg/mL; in the series on MCF7 it was 0.18 µg/mL; in the series with DU-145, 0.94 µg/mL; with KM-20L2, 0.24 µg/mL; with NCI-H460, 0.38 µg/mL; in the series with SF-268, 0.12 µg/mL.
On to `C=C[C@H]1CN2CC[C@H]1C[C@@H]2[C@@H](O)c1ccnc2ccc(OC)cc12.O=C1N[C@H]2[C@H](OP(=O)(O)O)[C@H](O)[C@@H](O)[C@H](O)[C@@H]2c2cc3c(c(O)c21)OCO3`, for which the EC50 in the series on P388 worked out at 0.21 µg/mL. Besides, the GI50 with BXPC-3 turned out to be 0.34 µg/mL; with MCF7 it was 0.38 µg/mL; in the series on DU-145, 0.2 µg/mL; in the series with KM-20L2, 0.23 µg/mL; in the series with NCI-H460 it was 0.36 µg/mL; in the series on SF-268, 0.27 µg/mL.
For `O=C1N[C@H]2[C@@H]3OP(=O)([O-])O[C@@H]3[C@@H](O)[C@H](O)[C@@H]2c2cc3c(c(O)c21)OCO3.[Na+]`, the EC50 in the series on P388 was 3.33 µg/mL. Also, the GI50 with BXPC-3 is 3.3 µg/mL; with MCF7 it was 2.9 µg/mL; with DU-145 it was 2.3 µg/mL; with KM-20L2, 3.7 µg/mL; in the series with NCI-H460, 3.8 µg/mL; with SF-268, 2.9 µg/mL.
For `O=C1N[C@@H]2C(=C[C@H](O)[C@H]3OP(=O)([O-])O[C@H]32)c2cc3c(c(O)c21)OCO3.[Na+]` [SODIUM NARCISTATIN], the EC50 in the series on P388 stood at 0.012 µg/mL. Moreover, the GI50 in the series on BXPC-3 is 0.069 µg/mL; with MCF7 it was 0.059 µg/mL; with DU-145, 0.031 µg/mL; in the series on KM-20L2, 0.06 µg/mL; in the series on NCI-H460, 0.058 µg/mL; with SF-268, 0.047 µg/mL.
Regarding `C1CNCCN1.O=C1N[C@H]2[C@H](OP(=O)(O)O)[C@H](O)[C@@H](O)[C@H](O)[C@@H]2c2cc3c(c(O)c21)OCO3`, in the series with P388, the EC50 was 0.019 µg/mL. Also, the GI50 in the series on BXPC-3 was 0.31 µg/mL; with MCF7 it was 0.38 µg/mL; in the series with DU-145 it was 0.21 µg/mL; in the series with KM-20L2, 0.24 µg/mL; with NCI-H460 it was 0.35 µg/mL; in the series with SF-268, 0.27 µg/mL.
As to `O=C1N[C@H]2[C@H](OP(=O)([O-])O)[C@H](O)[C@@H](O)[C@H](O)[C@@H]2c2cc3c(c(O)c21)OCO3.[K+]`, in the series on P388, the EC50 is 0.025 µg/mL. In addition, the GI50 with BXPC-3 was 0.45 µg/mL; with MCF7, 0.46 µg/mL; in the series on DU-145, 0.22 µg/mL; in the series with KM-20L2, 0.3 µg/mL; in the series with NCI-H460, 0.4 µg/mL; in the series on SF-268 it was 0.39 µg/mL.
As for `O=C(O[C@H]1[C@H](O)[C@@H](O)[C@@H](O)[C@@H]2NC(=O)c3c(cc4c(c3O)OCO4)[C@H]21)c1ccccc1` [PHENPANSTATIN], the EC50 with P388 is 0.0016 µg/mL (≈ 0.00373 µM). Besides, the GI50 in the series with BXPC-3 amounted to 0.0019 µg/mL (≈ 0.00442 µM); in the series with MCF7, 0.00031 µg/mL (≈ 0.000722 µM); in the series with DU-145 it was 0.00021 µg/mL (≈ 0.000489 µM); with KM-20L2 it was 0.00037 µg/mL (≈ 0.000862 µM); in the series on NCI-H460, 0.0001 µg/mL (≈ 0.000233 µM); with SF-268 it was 0.00055 µg/mL (≈ 0.00128 µM).
